Values after ≈ are worked out from the molar mass of the structure shown.
The compounds below were run on Zymoseptoria tritici (assay: Fungicidal activity screen in amended agar, 96 well plates). Details: 168 h, 1% potato dextrose agar amended to 20, 2, 0.2 and 0.02 ppm, 10,000 spores/mL, 18° C., assessed after 7 days, read-out: Zymoseptoria (EC50 ranking of fungal growth vs DMSO controls).
Type: cell-based
Procedure: Compounds were screened in 96 well plates with 10 compounds per plate. Each compound was screened using agar amended to 20, 2, 0.2 and 0.02 ppm of the test material. Proline at 50 and 10 ppm and 0.2% DMSO were used respectively as positive and negative controls. Each test concentration and standard were tested twice on a plate.
Compounds were screened against Zymoseptoria tritici. The agar used in the test was 1% potato dextrose agar. Sufficient spores were added to the appropriate agar to give 10,000 spores/mL agar.
A ×10 stock solution in 2% DMSO was produced for each dose i.e. 200, 20, 2 and 0.2 ppm, and 10 μl of this added to the appropriate wells on the plate. An equivalent amount of 2% DMSO and Proline stock at 500 and 100 ppm were added for the controls. To each well, 90 μl of the appropriate agar spore suspension was added to give the final well concentrations outlined in the first paragraph.
Plates were incubated at room temperature (18° C.) and assessed after 7 days.
The amount of fungal growth in each well was compared to the DMSO controls and scored according to the following key: • A—EC50<2 ppm • B—2≤EC50<20 • C—EC50≥20 • D—No activity detected at the highest dose tested • NT—Not tested

Row | SMILES | EC50 [µg/mL]
1 | CCOc1ccc2cc(NC(=O)c3nccc(OC)c3O)ccc2n1 [Example 1, N-(2-ethoxyquinolin-6-yl)-3-hydroxy-4-methoxypicolinamide] | 2 to 20 (≈ 5.89 to 58.9 µM)
2 | COc1ccnc(C(=O)Nc2ccc3nc(Oc4ccc(F)cc4)ccc3c2)c1O [Example 2, N-(2-(4-fluorophenoxy)quinolin-6-yl)-3-hydroxy-4-methoxypicolinamide] | < 2
3 | CCCOc1ccc2cc(NC(=O)c3nccc(OC)c3O)ccc2n1 [Example 3, 3-hydroxy-4-methoxy-N-(2-propoxyquinolin-6-yl)picolinamide] | < 2
4 | CCCCOc1ccc2cc(NC(=O)c3nccc(OC)c3O)ccc2n1 [Example 4, N-(2-butoxyquinolin-6-yl)-3-hydroxy-4-methoxypicolinamide] | 2 to 20 (≈ 5.44 to 54.4 µM)
5 | COc1ccnc(C(=O)Nc2ccc3nc(OC(C)C)ccc3c2)c1O [Example 5, 3-hydroxy-N-(2-isopropoxyquinolin-6-yl)-4-methoxypicolinamide] | < 2
6 | COc1ccnc(C(=O)Nc2ccc3nc(OC(C)C(C)C)ccc3c2)c1O (stereo not shown) [Example 6, 3-hydroxy-4-methoxy-N-(2-((3-methylbutan-2-yl)oxy)quinolin-6-yl)picolinamide] | < 2
7 | COc1ccnc(C(=O)Nc2ccc3nc(OCCC(C)C)ccc3c2)c1O [Example 7, 3-hydroxy-N-(2-(isopentyloxy)quinolin-6-yl)-4-methoxypicolinamide] | < 2
8 | COc1ccnc(C(=O)Nc2ccc3nc(N(C)c4ccc(F)cc4)ccc3c2)c1O [Example 8, N-(2-((4-fluorophenyl)(methyl)amino)quinolin-6-yl)-3-hydroxy-4-methoxypicolinamide] | < 2
9 | COc1ccnc(C(=O)Nc2ccc3nc(Sc4ccc(F)cc4)ccc3c2)c1O [Example 9, N-(2-((4-fluorophenyl)thio)quinolin-6-yl)-3-hydroxy-4-methoxypicolinamide] | < 2
10 | COc1ccnc(C(=O)Nc2ccc3nc(Cl)ccc3c2)c1O [Example 10, N-(2-chloroquinolin-6-yl)-3-hydroxy-4-methoxypicolinamide] | ≥ 20
11 | CCC(C)Oc1ccc2cc(NC(=O)c3nccc(OC)c3O)ccc2n1 (stereo not shown) [Example 11, N-(2-(sec-butoxy)quinolin-6-yl)-3-hydroxy-4-methoxypicolinamide] | < 2
12 | COc1ccnc(C(=O)Nc2ccc3ncc(Cc4ccccc4)cc3c2)c1O [Example 13, N-(3-benzylquinolin-6-yl)-3-hydroxy-4-methoxypicolinamide] | ≥ 20
13 | COc1ccnc(C(=O)Nc2ccc3cc(Cc4ccccc4)ccc3n2)c1O [Example 14, N-(6-benzylquinolin-2-yl)-3-hydroxy-4-methoxypicolinamide] | ≥ 20
14 | COc1ccnc(C(=O)Nc2ccc3cc(Br)ccc3n2)c1O [Example 15, N-(6-bromoquinolin-2-yl)-3-hydroxy-4-methoxypicolinamide] | 2 to 20 (≈ 5.34 to 53.4 µM)
15 | COc1ccnc(C(=O)Nc2ccc3cc(-c4ccccc4)ccc3n2)c1O [Example 16, 3-hydroxy-4-methoxy-N-(6-phenylquinolin-2-yl)picolinamide] | 2 to 20 (≈ 5.39 to 53.9 µM)
16 | COc1ccnc(C(=O)Nc2ccc3cc(Br)ccc3n2)c1OC(C)=O [Example 17, 2-((6-bromoquinolin-2-yl)carbamoyl)-4-methoxypyridin-3-yl acetate] | 2 to 20
17 | COc1ccnc(C(=O)Nc2ccc3cc(-c4ccccc4)ccc3n2)c1OC(C)=O [Example 18, 4-methoxy-2-((6-phenylquinolin-2-yl)carbamoyl)pyridin-3-yl acetate] | 2 to 20
18 | COc1ccnc(C(=O)Nc2ccc3nc(Oc4ccc(F)cc4)ccc3c2)c1OC(C)=O [Example 19, 2-((2-(4-fluorophenoxy)quinolin-6-yl)carbamoyl)-4-methoxypyridin-3-yl acetate] | < 2
19 | COc1ccnc(C(=O)Nc2ccc3nc(Oc4ccccc4Cl)ccc3c2)c1O [Example 20, N-(2-(2-chlorophenoxy)quinolin-6-yl)-3-hydroxy-4-methoxypicolinamide] | ≥ 20
20 | CCCCCc1cc(Oc2ccc(F)cc2)nc2ccc(NC(=O)c3nccc(OC)c3O)cc12 [Example 21, N-(2-(4-fluorophenoxy)-4-pentylquinolin-6-yl)-3-hydroxy-4-methoxypicolinamide] | ≥ 20

Row | SMILES | EC50 [µg/mL]
21 | COc1ccccc1Oc1ccc2cc(NC(=O)c3nccc(OC)c3O)ccc2n1 [Example 22, 3-hydroxy-4-methoxy-N-(2-(2-methoxyphenoxy)quinolin-6-yl)picolinamide] | ≥ 20
22 | COc1ccnc(C(=O)Nc2ccc3nc(N(C)c4ccccc4Cl)ccc3c2)c1O [Example 23, N-(2((2-chlorophenyl)(methyl)amino)quinolin-6-yl)-3-hydroxy-4-methoxypicolinamide] | < 2
23 | COc1ccnc(C(=O)Nc2ccc3nc(N(C)c4cccnc4Cl)ccc3c2)c1O [Example 25, N-(2-((2-chloropyridin-3-yl)(methyl)amino)quinolin-6-yl)-3-hydroxy-4-methoxypicolinamide] | 2 to 20 (≈ 4.59 to 45.9 µM)
24 | COc1ccnc(C(=O)Nc2ccc3nc(Sc4ccccc4Cl)ccc3c2)c1O [Example 26, N-(2-((2-chlorophenyl)thio)quinolin-6-yl)-3-hydroxy-4-methoxypicolinamide] | < 2
25 | COc1ccnc(C(=O)Nc2ccc3nc(Oc4cccnc4Cl)ccc3c2)c1O [Example 27, N-(2-((2-chloropyridin-3-yl)oxy)quinolin-6-yl)-3-hydroxy-4-methoxypicolinamide] | ≥ 20
26 | COc1ccnc(C(=O)Nc2ccc3nc(Sc4cccnc4Cl)ccc3c2)c1O [Example 28, N-(2-((2-chloropyridin-3-yl)thio)quinolin-6-yl)-3-hydroxy-4-methoxypicolinamide] | ≥ 20
27 | COc1ccnc(C(=O)Nc2ccc3nc(Sc4ccc(F)cc4)ccc3c2)c1OC(C)=O [Example 29, 2-((2-((4-fluorophenyl)thio)quinolin-6-yl)carbamoyl)-4-methoxypyridin-3-yl acetate] | ≥ 20
28 | COc1ccnc(C(=O)Nc2ccc3nc(Oc4ccccc4Cl)ccc3c2)c1OC(C)=O [Example 30, 2-((2-(2-chlorophenoxy)quinolin-6-yl)carbamoyl)-4-methoxypyridin-3-yl acetate] | 2 to 20
29 | CCCCCc1cc(Oc2ccc(F)cc2)nc2ccc(NC(=O)c3nccc(OC)c3OC(C)=O)cc12 [Example 31, 2-((2-(4-fluorophenoxy)-4-pentylquinolin-6-yl)carbamoyl)-4-methoxypyridin-3-yl acetate] | ≥ 20
30 | COc1ccnc(C(=O)Nc2ccc3nc(N(C)c4ccccc4Cl)ccc3c2)c1OC(C)=O [Example 32, 2-((2-((2-chlorophenyl)(methyl)amino)quinolin-6-yl)carbamoyl)-4-methoxypyridin-3-yl acetate] | < 2
31 | COc1ccnc(C(=O)Nc2ccc3nc(Sc4ccccc4Cl)ccc3c2)c1OC(C)=O [Example 33, 2-((2-((2-chlorophenyl)thio)quinolin-6-yl)carbamoyl)-4-methoxypyridin-3-yl acetate] | ≥ 20
32 | COc1ccnc(C(=O)Nc2ccc3nc(N(C)c4cccnc4Cl)ccc3c2)c1OC(C)=O [Example 34, 2-((2-((2-chloropyridin-3-yl)(methyl)amino)quinolin-6-yl)carbamoyl)-4-methoxypyridin-3-yl acetate] | ≥ 20
33 | COc1ccnc(C(=O)Nc2ccc3nc(Sc4cccnc4Cl)ccc3c2)c1OC(C)=O [Example 35, 2-((2-((2-chloropyridin-3-yl)thio)quinolin-6-yl)carbamoyl)-4-methoxypyridin-3-yl acetate] | 2 to 20
34 | COc1ccnc(C(=O)Nc2ccc3nc(Oc4cccnc4Cl)ccc3c2)c1OC(C)=O [Example 36, 2-((2-((2-chloropyridin-3-yl)oxy)quinolin-6-yl)carbamoyl)-4-methoxypyridin-3-yl acetate] | ≥ 20
35 | COc1ccnc2c(=O)n(-c3ccc4nc(Sc5ccc(F)cc5)ccc4c3)c(=S)oc12 [Example 37, 3-(2-((4-fluorophenyl)thio)quinolin-6-yl)-8-methoxy-2-thioxo-2,3-dihydro-4H-pyrido[2,3-e][1,3]oxazin-4-one] | < 2
36 | CCC(C)Oc1ccc2cc(-n3c(=S)oc4c(OC)ccnc4c3=O)ccc2n1 (stereo not shown) [Example 38, 3-(2-(sec-butoxy)quinolin-6-yl)-8-methoxy-2-thioxo-2,3-dihydro-4H-pyrido[2,3-e][1,3]oxazin-4-one] | 2 to 20 (≈ 4.88 to 48.8 µM)
37 | COc1ccnc2c(=O)n(-c3ccc4nc(OC(C)C(C)C)ccc4c3)c(=S)oc12 (stereo not shown) [Example 39, 8-methoxy-3-(2-((3-methylbutan-2-yl)oxy)quinolin-6-yl)-2-thioxo-2,3-dihydro-4H-pyrido[2,3-e][1,3]oxazin-4-one] | ≥ 20
38 | COc1ccnc2c(=O)n(-c3ccc4nc(Oc5ccccc5Cl)ccc4c3)c(=S)oc12 [Example 40, 3-(2-(2-chlorophenoxy)quinolin-6-yl)-8-methoxy-2-thioxo-2,3-dihydro-4H-pyrido[2,3-e][1,3]oxazin-4-one] | < 2
39 | COc1ccccc1Oc1ccc2cc(-n3c(=S)oc4c(OC)ccnc4c3=O)ccc2n1 [Example 41, 8-methoxy-3-(2-(2-methoxyphenoxy)quinolin-6-yl)-2-thioxo-2,3-dihydro-4H-pyrido[2,3-e][1,3]oxazin-4-one] | ≥ 20
40 | COc1ccnc2c(=O)n(-c3ccc4nc(N(C)c5ccccc5Cl)ccc4c3)c(=S)oc12 [Example 42, 3-(2-((2-chlorophenyl)(methyl)amino)quinolin-6-yl)-8-methoxy-2-thioxo-2,3-dihydro-4H-pyrido[2,3-e][1,3]oxazin-4-one] | 2 to 20 (≈ 4.19 to 41.9 µM)
